Experimental data from patent US9050275B2, “Methods of screening for and treating autism spectrum disorders and compositions for same” (Theta Biomedical Consulting & Development Co., Inc., priority 2009, dated 2015).
Where “and” joins values, the source holds several entries; their conditions need not be identical. Equal values may be shown once. Read-outs that look alike come from different tables or passages of the source. Where no end group is shown, it is not given here.

Assays:
mast cells = assay: Inhibition of mast cells by quercetin; format: cell-based; settings: Mast cell
LAD2 human mast cells [1] = assay: cells; format: cell-based; settings: for VEGF release / SP-induced VEGF release / HgCl2-induced VEGF release: 24 hours; for inhibition at 100 µM: Homo sapiens, LAD2, luteolin 0.1 mM, 10 min pretreatment
Procedure: (§1) LAD2 human mast cells were cultured in serum-free media (StemPro-34; GIBCO, Grand Island, N.Y.) supplemented with 2 mM L-glutamine, 100 IU/ml penicillin, 50 μg/ml streptomycin, and 100 ng/ml recombinant human Stem Cell Factor (rhSCF, obtained from Amgen, Inc., Thousand Oaks, Calif.). For optimal cell growth, LAD2 cell density was maintained between 0.5×106 and 1×10^6 cells/ml. Cell viability was assessed at 1 and 24 hr using trypan blue (0.3%) exclusion.
LAD2 cells were washed with DPBS and suspended in complete culture medium. LAD2 cells (2×10^5 cells/well/200 μl) were plated in 96 well flat bottom Falcon cell culture plates (Becton Dickinson, Franklin Lakes, N.J.) and were pre-incubated for 15 min at 37° C. in 5% CO2 atmosphere. The cells were then incubated with either SP (2 μM), HgCl2 (10 μM), or thimerosal (1, 10 μM) for 24 hours at 37° C. Control cells were treated with equal volume of only culture medium. For the inhibition experiments, thimerosal or methyl thiosalicylate were added together with the triggers, while luteolin was added 10 min before the triggers. After the reaction time, plates were centrifuged and the supernatant was gently collected from the wells and stored at −20° C. until VEGF was measured by Enzyme-Linked Immunosorbent Assay (ELISA) using a commercial kit (R&D Systems, Minneapolis, Minn.). The minimum detectable level of VEGF was 5 pg/ml.

Male BALB/6 mice = assay: Brain blood vessel leakage by Evans blue extravasation; format: in vivo
Procedure: Male BALB/6 mice (6 weeks old, Jackson Laboratories, Bar Harbor, Me.) were injected in their tail vein with 0.2 ml of Evans blue (0.4%). Binding of Evans blue to the albumin found in the blood prevents Evans blue from escaping the circulation and constitutes a good biomarker from extravasation in brain parenchyma.
Mice were anesthetized with a single intraperitoneal injection of ketamine/xylazine (10 mg/kg and 80 mg/kg body weight, each), an intracardiac catheter was inserted in the left ventricle, blood was withdrawn, and 10 ml normal saline was administered intracardially to wash any Evans blue from the systemic circulation. The mice were then decapitated and the whole brain was removed. For brain extravasated Evans blue measurements, the brains were first weighed and the Evans blue was then extracted in 1 ml of N,N-dimethylformamide overnight at 55° C. and the optical density was measured at 620 nm using a PerkinElmer Luminescence Spectrophotometer (Perkin Elmer, Norwalk, Conn.). EB concentration was calculated using a standard curve and values were normalized to the tissue weight and expressed as arbitrary units/mg of tissue. Five animals per group were estimated to be sufficient for significant differences given the variability (<50%) observed. […] Values were then compared using the non-parametric Mann-Whitney U test. Significance is denoted by p<0.05.

[2] = tested on: human cultured LAD2 cells; assay: Release of mitochondrial DNA from LAD2 mast cells (real time PCR); format: cell-based; settings: 5 min pretreatment with luteolin; neurotensin stimulation
Excerpt: Total DNA was extracted from supernatant fluids of cultured LAD2 cells using Qiagen DNA Micro extraction kit (Qiagen, Calif.). Mitochondrial specific DNA for Cytochrome B (Mt-CytB) and 7S (Mt-7S) was detected and quantified by Real time PCR using Taqman assay (Mt-7S: Hs02596861_s1; Mt-CYB: Hs02596867_s1; GAPDH: Hu, VIC, TAMRA, Applied Biosystems, Calif.). GAPDH DNA was used to exclude any genomic “contamination.”

LAD2 human mast cells [3] = settings: thimerosal 10 μM, 24 hours, trypan blue exclusion
Procedure: as §1

[4] = substance 10 μM added together with SP (2 μM)

## O=c1c(O)c(-c2ccc(O)c(O)c2)oc2cc(O)cc(O)c12 [Quercetin]
Mast cells
  inhibition at 10 µM: 80%

## Substance P (RPKPQQFFGLM-NH2; ends and bridges not checked; UniProt P20366 58-68, looked up) [SP, neuropeptide, non-allergic mast cell trigger]
LAD2 human mast cells [1]; SP 2 μM alone
  VEGF release: 445±16 pg/106 cells and 413.72±18 pg/106 cells

## COC(=O)c1ccccc1S [Methyl thiosalicylate, methyl thiosalicylate]
LAD2 human mast cells [1]; substance 1 μM added together with SP (2 μM)
  SP-induced VEGF release: 281.63±24 pg/106 cells
LAD2 human mast cells [1]; substance 1 μM added with HgCl2 (10 μM)
  HgCl2-induced VEGF release: 258±29 pg/106 cells
LAD2 human mast cells [1]; [4]
  SP-induced VEGF release: 185.85±23 pg/106 cells
LAD2 human mast cells [1]; substance 10 μM added with HgCl2 (10 μM)
  HgCl2-induced VEGF release: 249.5±24 pg/106 cells

## [Cl][Hg][Cl] [HgCl2, Mercury chloride]
LAD2 human mast cells [1]; 10 μM, no other trigger
  VEGF release: 488±76 pg/106 cells
LAD2 human mast cells [1]; [4]
  SP-induced VEGF release: 553±63 pg/106 cells

## O=c1cc(-c2ccc(O)c(O)c2)oc2cc(O)cc(O)c12 [luteolin, 5,7,3′,4′-tetrahydroxyflavone]
Male BALB/6 mice; pretreatment with luteolin 40 mg/kg body weight mixed in olive kernel extract, NT 500 nmol/kg ip
  inhibition of NT-induced brain blood vessel leakage: completely inhibited
Male BALB/6 mice; pretreatment with the same amount of luteolin (40 mg/kg), IL-33 1 microg/mouse plus NT
  inhibition of brain blood vessel leakage induced by IL-33 and NT: 50%
LAD2 human mast cells [1]; HgCl2 10 μM, read-out: inhibition of HgCl2-stimulated VEGF release
  inhibition at 100 µM: 100%
LAD2 human mast cells [1]; thimerosal 10 μM, read-out: inhibition of thimerosal-stimulated VEGF release
  inhibition at 100 µM: 100%
[2]
  inhibition of release of extracellular mt components from mast cells: can be inhibited

## C[CH2][Hg][S]c1ccccc1C(=O)[O-].[Na+] [thimerosal]
LAD2 human mast cells [3]
  decrease of viability: less than 10%
LAD2 human mast cells [1]; 1 μM, no other trigger
  VEGF release: 326±12 pg/106 cells
LAD2 human mast cells [1]; 10 μM, no other trigger
  VEGF release: 335±12 pg/106 cells
LAD2 human mast cells [1]; [4]
  SP-induced VEGF release: 274.5±35 pg/106 cells

B1: IL-33: interleukin-33, cytokine injected intraperitoneally (protein, UniProt O95760 1-270, looked up)
Interleukin-33: MKPKMKYSTNKISTAKWKNTASKALCFKLGKSQQKAKEVCPMYFMKLRSGLMIKKEACYFRRETTKRPSLKTGRKHKRHLVLAACQQQSTVECFAFGISGVQKYTRALHDSSITGISPITEYLASLSTYNDQSITFALEDESYEIYVEDLKKDEKKDKVLLSYYESQHPSNESGDGVDGKMLMVTLSPTKDFWLHANNKEHSVELHKCEKPLPDQAFFVLHNMHSNCVSFECKTDPGVFIGVKDNHLALIKVDSSENLCTENILFKLSET
Male BALB/6 mice; IL-33 1 microg/mouse, alone or with NT, Evans blue extravasation
  brain leakage: no effect
